Data as given in the supplement of paper PMC10307832.

Tests used:
Assay in all cases: relative viability (nuclei count vs DMSO), 5 days (fraction); higher = more cells survive
[1] = compound: CC(O)(CS(=O)(=O)c1ccc(F)cc1)C(=O)Nc1ccc(C#N)c(C(F)(F)F)c1 [Bicalutamide] + CC(=O)c1c(C)c2cnc(Nc3ccc(N4CCNCC4)cn3)nc2n(C2CCCC2)c1=O [Palbociclib] (partner 0.5 µM)
Summary of the method: (§1)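 Dosing by pin tool came one day after lung cancer cell lines were seeded in 1536-well plates, using either one drug or a fixed anchor-drug dose plus five library-drug doses (not always all listed) in √10 steps. After 5 days, nuclei were counted on 4× images. Relative viability is treated-well nuclei count divided by vehicle-well nuclei count, and values are medians of duplicate plates.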

[2] = compound: C(C(=O)C(=O)O)Br [Bromopyruvate] + Cc1cc(Nc2cc(N3CCN(C)CC3)nc(Sc3ccc(NC(=O)C4CC4)cc3)n2)n[nH]1 [Tozasertib] (partner 0.1 µM)
Summary of the method: as §1

[3] = compound: CC(O)(CS(=O)(=O)c1ccc(F)cc1)C(=O)Nc1ccc(C#N)c(C(F)(F)F)c1 [Bicalutamide] + CC1(C)CCC(c2ccc(Cl)cc2)=C(CN2CCN(c3ccc(C(=O)NS(=O)(=O)c4ccc(N[C@H](CCN5CCOCC5)CSc5ccccc5)c(S(=O)(=O)C(F)(F)F)c4)cc3)CC2)C1 [Navitoclax] (partner 0.5 µM)
Summary of the method: as §1

[4] = compound: CC(O)(CS(=O)(=O)c1ccc(F)cc1)C(=O)Nc1ccc(C#N)c(C(F)(F)F)c1 [Bicalutamide] + C[C@]1(O)C[C@@H](c2nc(-c3ccc4ccc(-c5ccccc5)nc4c3)c3c(N)nccn32)C1 [Linsitinib] (partner 1 µM)
Summary of the method: as §1

| Cell Line | relative viability ([1]; first compound 0.08 µM) | relative viability ([1]; first compound 0.253 µM) | relative viability ([1]; first compound 0.8 µM) | relative viability ([1]; first compound 2.53 µM) | relative viability ([2]; first compound 1 µM) | relative viability ([2]; first compound 3.162 µM) | relative viability ([2]; first compound 10 µM) | relative viability ([2]; first compound 31.62 µM) | relative viability ([2]; first compound 100 µM) | relative viability ([3]; first compound 0.08 µM) | relative viability ([3]; first compound 0.253 µM) | relative viability ([3]; first compound 0.8 µM) | relative viability ([3]; first compound 2.53 µM) | relative viability ([4]; first compound 0.08 µM) | relative viability ([4]; first compound 0.253 µM) | relative viability ([4]; first compound 0.8 µM) | relative viability ([4]; first compound 2.53 µM) |
| --- | --- | --- | --- | --- | --- | --- | --- | --- | --- | --- | --- | --- | --- | --- | --- | --- | --- |
| NCI-H2228 | 0.797 | 0.775 | 0.745 | 0.779 | 0.241 | 0.252 | 0.239 | 0.284 | 0.248 | 0.636 | 0.863 | 0.856 | 0.959 | 0.627 | 0.573 | 0.824 | 0.957 |
| EMC-BAC-2 | 0.532 | 0.502 | 0.543 | 0.437 | 0.295 | 0.289 | 0.317 | 0.267 | 0.314 | 1.19 | 1.11 | 1.21 | 1.16 | 0.854 | 0.796 | 0.803 | 0.756 |
| NCI-H2009 | 0.241 | 0.246 | 0.252 | 0.255 | 0.743 | 0.78 | 0.767 | 0.723 | 0.444 | 1.29 | 1.24 | 1.14 | 1.08 | 1.19 | 1.12 | 1.16 | 1.16 |
| SW 1573 | 0.418 | 0.451 | 0.457 | 0.351 | 0.191 | 0.184 | 0.159 | 0.171 | 0.0582 | 0.908 | 0.914 | 1.17 | 1.16 | 0.834 | 0.647 | 0.887 | 0.647 |
| NCI-H2023 | 0.406 | 0.373 | 0.408 | 0.286 | 0.31 | 0.4 | 0.348 | 0.482 | 0.39 | 1.08 | 1.04 | 1.06 | 0.945 | 0.721 | 0.723 | 0.597 | 0.715 |
| LOU-NH91 | 0.449 | 0.548 | 0.553 | 0.541 | 0.729 | 0.643 | 0.654 | 0.685 | 0.672 | 0.676 | 0.545 | 0.865 | 0.818 | 0.921 | 0.778 | 0.96 | 1.01 |
| NCI-H3122 | 0.193 | 0.183 | 0.201 | 0.181 | 0.381 | 0.378 | 0.468 | 0.417 | 0.382 | 0.991 | 1.01 | 1.02 | 1.03 | 1.01 | 1.04 | 1.04 | 1.07 |
| LCLC-97TM1 | 0.227 | 0.216 | 0.3 | 0.225 | 0.195 | 0.206 | 0.212 | 0.182 | 0.128 | 0.558 | 0.379 | 0.573 | 0.572 | 0.185 | 0.188 | 0.199 | 0.185 |
| NCI-H647 | 0.415 | 0.381 | 0.503 | 0.385 | 0.289 | 0.221 | 0.29 | 0.298 | 0.389 | 1.15 | 1.09 | 1.46 | 1.18 | 1.2 | 1.17 | 1.48 | 0.955 |
